Laboratory results: patent US20210093715A1, “ANTI-ANGIOGENESIS THERAPY FOR THE TREATMENT OF BREAST CANCER” (Genentech, Inc., priority 2008, published 2021)
Read-outs that look alike come from different tables or passages of the source.

Assays:
[1] = test system: previously untreated locally recurrent or metastatic HER2-negative breast cancer; test: RIBBON1 randomized phase III trial, efficacy (PFS, ORR, OS) of bevacizumab or placebo with chemotherapy; type: in vivo, human; conditions: for % of deaths: overall survival analysis; for ORR (%) / ORR, number of patients with objective response: patients with measurable disease; for median duration of objective response: among responders; for PFS compared to chemotherapies alone (in words): bevacizumab added to capecitabine, taxane or anthracycline-based chemotherapy, 1st-line
From the text: (§1) The primary objective of the study was to determine the clinical benefit of the addition of bevacizumab to standard chemotherapy regimes for previously untreated metastatic breast cancer, as measured by PFS based on investigator tumor assessment. See, e.g., O'Shaughnessy and Brufsky, (2008), Clinical Breast Cancer, 8(4): 370-373. The trial comprised two study groups that evaluated AVASTIN® with different types of chemotherapies in women who had not previously received chemotherapy for their advanced HER2-negative breast cancer. In the first study group, women received either AVASTIN or placebo in combination with taxane or anthracycline-based chemotherapies. In the second study group, women received either AVASTIN or placebo in combination with capecitabine chemotherapy. The analysis of this example was based on information from 1237 patients. These trials evaluated the efficacy of bevacizumab (AVASTIN®) as therapy for patients previously untreated metastic breast cancer.
(§2) In the RIBBON1 trial, the following treatment protocol was used:
(§3) Arm A: bevacizumab 15 mg/kg IV on day 1 of each 21-day cycle and either cohort 1, cohort 2 or cohort 3;
(§4) Arm B: placebo IV on day 1 of each 21-day cycle and either cohort 1, cohort 2 or cohort 3.
(§5) Cohort 1: Either of the following taxanes administered every 3 weeks
Paclitaxel protein-bound particles (Abraxane®) 260 mg/m^2 IV
(§6) Cohort 2: Any of the following anthracycline-based combination chemotherapies, for subjects previously untreated with anthracyclines, every 3 weeks:
FEC: 5-fluorouracil 500 mg/m^2 IV, epirubicin 90-100 mg/m^2 IV and cyclophosphamide 500 mg/m^2 IV on Day 1
FAC: 5-fluorouracil 500 mg/m^2 IV, doxorubicin 50 mg/m^2 IV and cyclophosphamide 500 mg/m^2 IV on Day 1
AC: Doxorubicin 50-60 mg/m^2 IV and cyclophosphamide 500-600 mg/m^2 IV on Day 1
EC: Epirubicin 90-100 mg/m^2 IV and cyclophosphamide 500-600 mg/m^2 IV on Day 1
(§7) Cohort 3: Capecitabine 1000 mg/m^2 oral twice daily on Days 1-14 of each 3-week cycle.
All subjects had histologically or cytologically confirmed adenocarcinoma of the breast, subjects may have had either measureable (per the Response Evaluation Criteria in Solid Tumors (RECIST)) or non-measureable locally recurrent or metastatic disease. The locally recurrent disease was not amenable to resection with curative intent.
The trial was conducted worldwide (at least 22 countries) and accrued 1237 subjects/patients (Taxane (T): 307; Anthracycline (Anthra): 315; and Capecitabine (Cap): 615).
The primary endpoint of the study was progression free survival (PFS), defined as the time from randomization to disease progression or to death, based on investigator assessment. Kaplan-Meier methodology can be used to estimate median PFS for each treatment arm. In certain embodiments, the hazard ratio for PFS will be estimated using a stratified Cox regression model with the same stratification factors used in the stratified log-rank test. Analyses of PFS in each cohort is performed at the two-sided α=0.05 level. Time-to-event data are compared between treatment arms using a stratified log-rank test. The Kaplan-Meier method is used to estimate duration of time-to-event data. The 95% confidence intervals for median time-to-event are computed using the Brookmeyer-Crowley method. The HR for time-to-event data are estimated using a stratified Cox regression model.
(§8) The secondary endpoints included objective response rate (ORR), one-year survival rate, overall survival (OS), and PFS based on IRC assessment and safety. OS is defined as the time from randomization until death from any cause. ORR is defined as the percentage of patients who achieved a complete or partial response confirmed ≥28 days after initial documentation of response. One-year survival rate is assessed between treatment arms using the normal approximation method. ORR in patients with measurable disease at baseline is compared using the stratified Mantel-Haenszel χ2 test.

[2] = test system: previously untreated locally recurrent or metastatic HER2-negative breast cancer
From the text: as §1, §2, §3, §4, §5, §6, §7
as §8, with “test. Randomization stratification factors are included in all stratified analyses.” for “test.”

metastatic breast cancer [3] = conditions: weekly paclitaxel + bevacizumab vs paclitaxel alone; cited from earlier work
metastatic breast cancer [4] = conditions: docetaxel + bevacizumab (7.5 and 15 mg/kg q3w) vs docetaxel alone; cited from earlier work
[5] = test system: previously treated metastatic breast cancer; conditions: capecitabine + bevacizumab vs capecitabine alone; cited from earlier work
[6] = Cap cohort, BV arm = bevacizumab + capecitabine, PL arm = placebo + capecitabine, investigator assessment
[7] = Cap cohort, BV or placebo + capecitabine
[8] = Cap cohort, second PFS figure of b186, assessor not stated (FIG. 2 shows INV and IRC)
[9] = T/Anthra cohort, BV or placebo + taxane/anthracycline

CCCCCOC(=O)Nc1nc(=O)n([C@@H]2O[C@H](C)[C@@H](O)[C@H]2O)cc1F [Cap, capecitabine, reference compound]
1-yr survival rate (%) ([1]; Cap cohort): 74%
PFS Median (months) [1, 6]: 5.7 months
Median OS (months) [1, 7]: 21.2 months
% of deaths ([1]; Cap cohort): 35%
ORR (%) [1, 7]: (23.6%)
ORR, number of patients with objective response [1, 7]: 38
PFS [1, 8]: 6.2 months
median duration of objective response ([1]; Capecitabine cohort): 7.2 months
AEs leading to death (excludes AEs related to metastatic breast cancer progression) ([2]; Cape cohort): 2.5%
AEs leading to study drug (PL or BV) discontinuation ([2]; female, human, in vivo): 11.9%
SAEs ([2]; female, human, in vivo): 18.9%
Selected AEs (previously shown to be associated with bevacizumab) ([2]; female, human, in vivo): 9.0%

BV: recombinant humanized anti-VEGF monoclonal antibody, human IgG1 framework with CDRs from murine antibody A.4.6.1
mPFS, mo (median PFS) ([1]; Anthra subgroup, BV or placebo + anthracycline-based chemotherapy): 9.2 mo
PFS HR (95% CI) ([1]; Anthra subgroup, BV vs PL): 0.55 (0.40-0.74)
PFS Median (months) [1, 6]: 8.6 months
Median OS (months) [1, 7]: 29.0 months
PFS HR (95% CI) ([1]; Cap cohort, bevacizumab 15 mg/kg q3w + capecitabine vs placebo + capecitabine, investigator assessment): 0.688
OS (HR, 95% CI) ([1]; Cap cohort, bevacizumab + capecitabine vs placebo + capecitabine): 0.85 (0.63-1.14)
OS (HR, 95% CI) ([1]; Cap cohort, bevacizumab + capecitabine vs placebo + capecitabine, listed as B): 0.847
% of deaths ([1]; Cap cohort): 30%
ORR (%) [1, 7]: (35.4%)
PFS [1, 8]: 9.7 months
median duration of objective response ([1]; Capecitabine cohort): 9.2 months
PFS Median (months) ([1]; T/Anthra cohort, BV arm = bevacizumab + taxane/anthracycline, PL arm = placebo + taxane/anthracycline, investigator assessment): 9.2 months
Median OS (months) [1, 9]: 25.2 months
PFS HR (95% CI) ([1]; T/Anthra cohort, bevacizumab 15 mg/kg q3w + taxane/anthracycline vs placebo + taxane/anthracycline, investigator assessment): 0.644
OS (HR, 95% CI) ([1]; T/Anthra cohort, bevacizumab + taxane/anthracycline vs placebo + taxane/anthracycline): 1.03 (0.77-1.38)
OS (HR, 95% CI) ([1]; T/Anthra cohort, bevacizumab + taxane/anthracycline vs placebo + taxane/anthracycline, listed as B): 1.032
% of deaths ([1]; T/Anthra cohort): 34%
ORR (%) [1, 9]: (51.3%)
ORR, number of patients with objective response [1, 9]: 177
PFS ([1]; T/Anthra cohort, second PFS figure of b186, assessor not stated (FIG. 3 shows INV and IRC)): 10.7 months
mPFS, mo (median PFS) ([1]; Taxane subgroup, BV or placebo + docetaxel or Abraxane): 9.2 mo
PFS HR (95% CI) ([1]; Taxane subgroup, BV vs PL): 0.75 (0.56-1.01)
PFS compared to chemotherapies alone (in words) [1]: statistically-significant improvement in PFS
PFS compared to chemotherapies alone (in words) ([1]; listed as AVASTIN®): increased the time women lived without their disease advancing
median duration of objective response ([1]; taxane/anthracycline cohort): 8.3 months
AEs leading to study drug (PL or BV) discontinuation ([2]; Anthra cohort): 14.3%
SAEs ([2]; Anthra cohort): 22.4%
AEs leading to study drug (PL or BV) discontinuation ([2]; Cape cohort): 11.9%
SAEs ([2]; Cape cohort): 24.3%
AEs leading to death (excludes AEs related to metastatic breast cancer progression) ([2]; Taxane cohort): 3.4%
AEs leading to study drug (PL or BV) discontinuation ([2]; Taxane cohort): 24.1%
SAEs ([2]; Taxane cohort): 41.4%
Safety ([2]; bevacizumab + chemotherapy, all cohorts): consistent with results of prior bevacizumab trials
progression-free survival (PFS) (metastatic breast cancer [3]): significantly longer
progression-free survival (PFS) (metastatic breast cancer [4]): longer
PFS (primary objective) [5]: failed to meet its primary objective of improving PFS
overall response rate (ORR) [5]: higher
